Reference: patent publication US8501794B2, “Compounds as cannabinoid receptor ligands” (priority 2007, dated 2013)

How the values were obtained:
[1] = molecular target: T1, human CB2 receptors (Homo sapiens, UniProt P34972); experiment: human CB2 radioligand binding assay ([3H]CP-55,940 competition)
T1 construct: expressed in transfected cells; host or cells: HEK293

[2] = molecular target: T2, rat CB2 (Rattus norvegicus, UniProt Q9QZN9); experiment: rat CB2 cyclase functional assay (HitHunter cAMP, HEK cells); format: cell-based; design: expressed in transfected cells; host or cells: HEK; details: forskolin 18 μM
T2 sequence (Q9QZN9 1-360): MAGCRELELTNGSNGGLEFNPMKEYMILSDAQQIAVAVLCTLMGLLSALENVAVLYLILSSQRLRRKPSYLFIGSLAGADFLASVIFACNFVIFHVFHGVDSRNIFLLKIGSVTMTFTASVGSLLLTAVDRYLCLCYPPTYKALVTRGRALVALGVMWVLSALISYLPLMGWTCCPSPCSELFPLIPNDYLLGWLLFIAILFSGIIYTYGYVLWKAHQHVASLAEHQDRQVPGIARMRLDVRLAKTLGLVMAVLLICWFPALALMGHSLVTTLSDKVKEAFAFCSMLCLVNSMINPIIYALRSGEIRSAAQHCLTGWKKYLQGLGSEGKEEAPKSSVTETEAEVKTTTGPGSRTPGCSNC

[3] = molecular target: T2, rat CB2; experiment: rat CB2 radioligand binding assay ([3H]CP-55,940 competition); design: expressed in transfected cells; host or cells: HEK293

T1 sequence (P34972 whole entry): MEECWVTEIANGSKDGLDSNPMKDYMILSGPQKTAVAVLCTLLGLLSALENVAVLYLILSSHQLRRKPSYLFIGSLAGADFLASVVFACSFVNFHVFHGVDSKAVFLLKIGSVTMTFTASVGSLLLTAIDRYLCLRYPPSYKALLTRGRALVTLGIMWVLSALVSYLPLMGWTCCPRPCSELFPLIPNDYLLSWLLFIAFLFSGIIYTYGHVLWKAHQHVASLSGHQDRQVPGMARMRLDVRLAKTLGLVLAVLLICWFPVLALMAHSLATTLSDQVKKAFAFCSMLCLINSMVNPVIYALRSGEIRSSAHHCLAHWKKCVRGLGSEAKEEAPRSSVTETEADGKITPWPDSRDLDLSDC

Row | Structure (SMILES) | Ki [1] | EC50 [2] | Ki [3]
1 | CCOc1ccc(C(F)(F)F)cc1C(=O)/N=c1\sn(C(C)(C)C)cc1CC(C)C [Example 146, N-[(5Z)-2-tert-butyl-4-isobutylisothiazol-5(2H)-ylidene]-2-ethoxy-5-(trifluoromethyl)benzamide] | 24 nM | 0.29 nM | 3.1 nM
2 | CCCCCc1cn(C(C)(C)C)s/c1=N\C(=O)c1cc(Cl)ccc1OC [Example 147, N-[(5Z)-2-tert-butyl-4-pentylisothiazol-5(2H)-ylidene]-5-chloro-2-methoxybenzamide] | 1.6 nM | 0.062 nM | 0.15 nM
3 | COc1ccc(Cl)cc1C(=O)/N=c1\sn(C(C)(C)C)cc1CCCCF [Example 148, N-[(5Z)-2-tert-butyl-4-(4-fluorobutyl)isothiazol-5(2H)-ylidene]-5-chloro-2-methoxybenzamide] | 7.6 nM | 0.11 nM | 0.24 nM
4 | COc1ccc(C(F)(F)F)cc1C(=O)/N=c1\sn(C(C)(C)C)cc1CCCCF [Example 149, N-[(5Z)-2-tert-butyl-4-(4-fluorobutyl)isothiazol-5(2H)-ylidene]-2-methoxy-5-(trifluoromethyl)benzamide] | 8.3 nM | 0.23 nM | 0.15 nM
5 | CCCCc1cn(C(C)(C)C(F)(F)F)s/c1=N\C(=O)c1cc(Cl)ccc1OC [Example 151, N-[(5Z)-4-butyl-2-(2,2,2-trifluoro-1,1-dimethylethyl)isothiazol-5(2H)-ylidene]-5-chloro-2-methoxybenzamide] | 9.1 nM | 0.072 nM | 0.4 nM
6 | CCCCc1cn(C(C)(C)CF)s/c1=N\C(=O)c1cc(C(F)(F)F)ccc1OC [Example 152, N-[(5Z)-4-butyl-2-(2-fluoro-1,1-dimethylethyl)isothiazol-5(2H)-ylidene]-2-methoxy-5-(trifluoromethyl)benzamide] | 5.1 nM | 0.071 nM | 0.79 nM
7 | CCCCc1cn(C(C)(C)C)s/c1=N\C(=O)c1cc(Cl)ccc1OCC#N [Example 153, N-[(5Z)-4-butyl-2-tert-butylisothiazol-5(2H)-ylidene]-5-chloro-2-(cyanomethoxy)benzamide] | 13 nM | 0.061 nM | 2.1 nM
8 | CCCCc1cn(C(C)(C)CF)s/c1=N\C(=O)c1cc(Cl)ccc1OC [Example 154, N-[(5Z)-4-butyl-2-(2-fluoro-1,1-dimethylethyl)isothiazol-5(2H)-ylidene]-5-chloro-2-methoxybenzamide] | 5.7 nM | 0.065 nM | 0.32 nM
9 | COc1ccc(Cl)cc1C(=O)/N=c1\sn(C(C)(C)C)cc1OCCCCF [Example 158, N-[(5Z)-2-tert-butyl-4-(4-fluorobutoxy)isothiazol-5(2H)-ylidene]-5-chloro-2-methoxybenzamide] | 48 nM | 0.046 nM | 6.1 nM
10 | CCCCc1cn(C(C)(C)C)s/c1=N\C(=O)[C@H]1CC[C@@](C)(C(=O)OC)C1(C)C [Example 170, Methyl (1R,3S)-3-({[(5Z)-4-butyl-2-tert-butylisothiazol-5(2H)-ylidene]amino}carbonyl)-1,2,2-trimethylcyclopentanecarboxylate] | 1.4 nM | 0.043 nM | 1.7 nM
11 | CCCCc1cn(C(C)(C)C)s/c1=N\C(=O)[C@H]1CC[C@@](C)(C(N)=O)C1(C)C [Example 171, (1R,3S)—N^3-[(5Z)-4-butyl-2-tert-butylisothiazol-5(2H)-ylidene]-1,2,2-trimethylcyclopentane-1,3-dicarboxamide] | 9 nM | 0.19 nM | 5.8 nM
12 | CCCCc1cn(C(C)(C)C)s/c1=N\C(=O)[C@]1(C)CC[C@H](C(=O)O)C1(C)C [Example 173, (1S,3R)-3-({[(5Z)-4-butyl-2-tert-butylisothiazol-5(2H)-ylidene]amino}carbonyl)-2,2,3-trimethylcyclopentanecarboxylic acid] | 107 nM | 3.5 nM | 77 nM
13 | CCCCc1cn(C(C)(C)C)s/c1=N\C(=O)[C@@]1(C)CC[C@@H](C(=O)O)C1(C)C [Example 174, (1R,3S)-3-({[(5Z)-4-butyl-2-tert-butylisothiazol-5(2H)-ylidene]amino}carbonyl)-2,2,3-trimethylcyclopentanecarboxylic acid] | 62 nM | 3.4 nM | 33 nM
14 | CCCCc1cn(C(C)(C)C)s/c1=N\C(=O)[C@]1(C)CC[C@H](C(=O)OCC)C1(C)C [Example 175, Ethyl (1S,3R)-3-({[(5Z)-4-butyl-2-tert-butylisothiazol-5(2H)-ylidene]amino}carbonyl)-2,2,3-trimethylcyclopentanecarboxylate] | 3.8 nM | 0.54 nM | 1.5 nM
15 | CCCCc1cn(C(C)(C)C)s/c1=N\C(=O)[C@@]1(C)CC[C@@H](C(=O)OCC)C1(C)C [Example 176, Ethyl (1R,3S)-3-({[(5Z)-4-butyl-2-tert-butylisothiazol-5(2H)-ylidene]amino}carbonyl)-2,2,3-trimethylcyclopentanecarboxylate] | 16 nM | 1.1 nM | 7 nM
16 | CCCCc1cn(C(C)(C)C)s/c1=N\C(=O)[C@]1(C)CC[C@H](C(=O)OC)C1(C)C [Example 177, Methyl (1S,3R)-3-({[(5Z)-4-butyl-2-tert-butylisothiazol-5(2H)-ylidene]amino}carbonyl)-2,2,3-trimethylcyclopentanecarboxylate] | 0.16 nM | 0.15 nM | 0.1 nM
17 | CCCCc1cn(C(C)(C)C)s/c1=N\C(=O)[C@]1(C)CC[C@H](C(=O)NC)C1(C)C [Example 184, (1R,3S)—N^1-[(5Z)-4-butyl-2-tert-butylisothiazol-5(2H)-ylidene]-N^3,1,2,2-tetramethylcyclopentane-1,3-dicarboxamide] | 6.5 nM | 0.41 nM | 3.2 nM
18 | CCCCc1cn(C(C)(C)C)s/c1=N\C(=O)[C@@]1(C)CC[C@@H](C(=O)OC)C1(C)C [Example 186, Methyl (1R,3S)-3-({[(5Z)-4-butyl-2-tert-butylisothiazol-5(2H)-ylidene]amino}carbonyl)-2,2,3-trimethylcyclopentanecarboxylate] | 1.7 nM | 0.38 nM | 1.4 nM
19 | CCCCc1cn(C(C)(C)C)s/c1=N\C(=O)NC1CCC(C)CC1 (stereo not drawn) [Example 191, N-[(5Z)-4-butyl-2-tert-butylisothiazol-5(2H)-ylidene]-N′-(4-methylcyclohexyl)urea] | 15 nM | 0.51 nM | 1.8 nM
20 | CCCCc1cn(C(C)(C)C)s/c1=N\C(=O)c1cc(C(F)(F)F)ccc1OC[C@@H]1CCCN1C [Example 192, N-[(5Z)-4-butyl-2-tert-butylisothiazol-5(2H)-ylidene]-2-{[(2S)-1-methylpyrrolidin-2-yl]methoxy}-5-(trifluoromethyl)benzamide] | 46 nM | 3.4 nM | 18 nM
21 | CCCCc1cn(C(C)(C)C)s/c1=N\C(=NC#N)c1cc(C(F)(F)F)ccc1OC[C@@H]1CCCN1C [Example 193] | 37 nM | 2.7 nM | 97 nM
22 | CCCCc1cn(C(C)(C)C)s/c1=N\C(=O)c1cc(C(F)(F)F)ccc1OC[C@@H]1COC(=O)N1 [Example 195, N-[(5Z)-4-butyl-2-tert-butylisothiazol-5(2H)-ylidene]-2-{[(4R)-2-oxo-1,3-oxazolidin-4-yl]methoxy}-5-(trifluoromethyl)benzamide] | 16 nM | 1.4 nM | 7.6 nM
23 | CCCCc1cn(C(C)(C)C)s/c1=N\C(=O)c1cc(C(F)(F)F)ccc1OCC1CCCCN1C (stereo not drawn) [Example 196, N-[(5Z)-4-butyl-2-tert-butylisothiazol-5(2H)-ylidene]-2-[(1-methylpiperidin-2-yl)methoxy]-5-(trifluoromethyl)benzamide] | 18 nM | 2.4 nM | 28.8 nM
24 | CCCCc1cn(C(C)(C)C)s/c1=N\C(=O)[C@@H]1CC[C@](C)(C(=O)NC)C1(C)C [Example 209, (1S,3R)—N^3-[(5Z)-4-butyl-2-tert-butylisothiazol-5(2H)-ylidene]-N^1,1,2,2-tetramethylcyclopentane-1,3-dicarboxamide] | 12 nM | 0.44 nM | 7.3 nM
25 | CCCCc1cn(C(C)(C)C)s/c1=N\C(=O)[C@@H]1CC[C@](C)(C(=O)NCC)C1(C)C [Example 210, (1S,3R)—N^3-[(5Z)-4-butyl-2-tert-butylisothiazol-5(2H)-ylidene]-N^1-ethyl-1,2,2-trimethylcyclopentane-1,3-dicarboxamide] | 36 nM | 0.19 nM | 49 nM
26 | CCCCc1cn(C(C)(C)C)s/c1=N\C(=O)[C@@H]1CC[C@](C)(C(=O)NCCO)C1(C)C [Example 212, (1S,3R)—N^3-[(5Z)-4-butyl-2-tert-butylisothiazol-5(2H)-ylidene]-N^1-(2-hydroxyethyl)-1,2,2-trimethylcyclopentane-1,3-dicarboxamide] | 180 nM | 6.2 nM | 257 nM
27 | CCCCc1cn(C(C)(C)C)s/c1=N\C(=O)[C@]1(C)CC[C@H](C2=NCCO2)C1(C)C [Example 217, (1R,3S)—N-[(5Z)-4-butyl-2-tert-butylisothiazol-5(2H)-ylidene]-3-(4,5-dihydro-1,3-oxazol-2-yl)-1,2,2-trimethylcyclopentanecarboxamide] | 0.7 nM | 0.16 nM | 0.73 nM
